Assay results published in publication PMC8159961, “Exploring protein hotspots by optimized fragment pharmacophores” (Nature Communications, 2021).
Values joined by “and” are separate entries in the source; they are usually repeats but may differ in a detail not shown here. Identical values can stand only once. Like-named read-outs stand apart in the source and are kept apart here.

Columns and labels:
[1] = molecular target: T1, human 5-HT7b receptor (Homo sapiens, UniProt P34969); test: GPCR radioligand binding assay, [3H]-5-CT displacement, HEK293 membranes; conditions: for experimental hit status, 5-HT7: 1 = hit, 0 = no hit, tested at 10 µM, hit = 50% or stronger inhibition
T1 construct: expressed in transfected cells

[2] = molecular target: T2, human 5-HT1A receptor (Homo sapiens, UniProt P08908); test: GPCR radioligand binding assay, [3H]-8-OH-DPAT displacement, HEK293 membranes; conditions: for experimental hit status, 5-HT1: 1 = hit, 0 = no hit, tested at 10 µM, hit = 50% or stronger inhibition
T2 construct: expressed in transfected cells
T2 sequence (P08908 1-422): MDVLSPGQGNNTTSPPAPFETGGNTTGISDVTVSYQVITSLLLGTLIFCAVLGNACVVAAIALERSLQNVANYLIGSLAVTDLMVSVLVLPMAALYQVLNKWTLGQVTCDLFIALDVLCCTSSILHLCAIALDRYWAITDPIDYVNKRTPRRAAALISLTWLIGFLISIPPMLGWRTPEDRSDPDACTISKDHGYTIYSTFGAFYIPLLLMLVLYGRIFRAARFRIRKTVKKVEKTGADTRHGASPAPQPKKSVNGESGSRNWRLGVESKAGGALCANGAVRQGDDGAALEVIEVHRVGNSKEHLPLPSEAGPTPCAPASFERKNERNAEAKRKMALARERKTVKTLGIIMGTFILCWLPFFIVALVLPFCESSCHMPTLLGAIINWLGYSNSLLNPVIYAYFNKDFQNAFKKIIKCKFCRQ

[3] = molecular target: T3, human thrombin (Homo sapiens, UniProt P00734); test: Protease inhibitory assay, chromogenic substrate S-2238; format: biochemical; conditions: for Ki: plate layout, label = plate position, Cheng-Prusoff, Km 2.6 µM, read-out: Thrombin Ki; for experimental hit status, Thrombin: 1 = hit, 0 = no hit, screening at 200 µM
T3 construct: human thrombin; purchased Sigma-Aldrich

[4] = molecular target: T4, bovine factor Xa (Bos taurus, UniProt P00743); test: Protease inhibitory assay, chromogenic substrate S-2222; format: biochemical; conditions: for experimental hit status, Factor Xa: 1 = hit, 0 = no hit, screening at 200 µM
T4 construct: bovine factor Xa, Chromogenix, 2 nkat/mL; purchased Chromogenix

[5] = molecular target: T5, human 5-HT6 receptor (Homo sapiens, UniProt P50406); test: GPCR radioligand binding assay, [3H]-LSD displacement, HEK293 membranes; conditions: for experimental hit status, 5-HT6: 1 = hit, 0 = no hit, tested at 10 µM, hit = 50% or stronger inhibition
T5 construct: expressed in transfected cells

[6] = molecular target: T6, recombinant SETD2 (Homo sapiens, UniProt Q9BYW2); test: SETD2 Chemiluminescence assay (H3K36 tri-methylation); format: biochemical; conditions: for experimental hit status, SETD2: 1 = hit, 0 = no hit; for SETD2 signal normalised to positive control and internally to compound: nM], replicates
T6 construct: purchased BPS Bioscience 52060
T6 sequence (Q9BYW2 1418-1714 limits assumed): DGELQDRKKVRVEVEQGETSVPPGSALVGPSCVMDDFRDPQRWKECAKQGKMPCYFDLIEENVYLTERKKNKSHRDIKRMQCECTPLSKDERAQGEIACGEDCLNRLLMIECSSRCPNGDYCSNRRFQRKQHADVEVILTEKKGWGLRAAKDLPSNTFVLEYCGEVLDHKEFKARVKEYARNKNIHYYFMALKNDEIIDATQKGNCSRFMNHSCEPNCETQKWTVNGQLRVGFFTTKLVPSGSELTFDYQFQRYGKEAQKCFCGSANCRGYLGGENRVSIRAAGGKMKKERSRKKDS

[7] = 10 µM, read-out: 5-HT7 % Inhibition by plate position
[8] = 5-HT7, average of exp_1 and exp_2, read-out: %inh 5-HT7 average
[9] = 5-HT7, average, values below 0 and above 100% were set as 0 and 100, read-out: %inh 5-HT7 corrected*
[10] = 5-HT7, replicate exp_1, read-out: %inh 5-HT7 exp_1
[11] = 5-HT7, replicate exp_2, read-out: %inh 5-HT7 exp_2
[12] = 10 µM, read-out: 5-HT1A % Inhibition by plate position
[13] = 5-HT1A, average of exp_1 and exp_2, read-out: %inh 5-HT1A average
[14] = 5-HT1A, average, values below 0 and above 100% were set as 0 and 100, read-out: %inh 5-HT1A corrected*
[15] = 5-HT1A, replicate exp_1, read-out: %inh 5-HT1A exp_1
[16] = 5-HT1A, replicate exp_2, read-out: %inh 5-HT1A exp_2
[17] = 10 µM, read-out: 5-HT6 % Inhibition by plate position
[18] = 5-HT6, average of exp_1 and exp_2, read-out: %inh 5-HT6 average
[19] = 5-HT6, average, values below 0 and above 100% were set as 0 and 100, read-out: %inh 5-HT6 corrected*
[20] = 5-HT6, replicate exp_1, read-out: %inh 5-HT6 exp_1
[21] = 5-HT6, replicate exp_2, read-out: %inh 5-HT6 exp_2

T5 sequence (P50406 whole entry): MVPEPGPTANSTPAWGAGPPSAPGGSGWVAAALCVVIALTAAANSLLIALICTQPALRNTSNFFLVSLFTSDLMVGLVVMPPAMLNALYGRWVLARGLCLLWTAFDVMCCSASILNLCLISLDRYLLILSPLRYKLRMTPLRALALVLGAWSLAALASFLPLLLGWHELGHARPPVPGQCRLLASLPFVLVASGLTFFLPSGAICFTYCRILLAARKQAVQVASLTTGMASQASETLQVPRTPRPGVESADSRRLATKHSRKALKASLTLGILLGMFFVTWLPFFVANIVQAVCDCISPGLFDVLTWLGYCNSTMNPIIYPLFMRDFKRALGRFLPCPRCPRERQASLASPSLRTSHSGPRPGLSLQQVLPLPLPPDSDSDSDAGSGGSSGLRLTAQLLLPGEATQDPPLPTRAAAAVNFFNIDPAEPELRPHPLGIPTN
T4 sequence (P00743 234-492 limits assumed): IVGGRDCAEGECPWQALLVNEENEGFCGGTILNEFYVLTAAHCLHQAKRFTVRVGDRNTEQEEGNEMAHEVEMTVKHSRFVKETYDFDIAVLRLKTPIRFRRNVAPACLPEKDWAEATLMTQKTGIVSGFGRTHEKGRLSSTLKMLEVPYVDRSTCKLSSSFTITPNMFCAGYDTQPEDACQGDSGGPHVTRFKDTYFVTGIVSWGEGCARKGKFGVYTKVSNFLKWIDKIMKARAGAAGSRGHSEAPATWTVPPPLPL
T4 sequence (P00743 41-180 partner limits assumed): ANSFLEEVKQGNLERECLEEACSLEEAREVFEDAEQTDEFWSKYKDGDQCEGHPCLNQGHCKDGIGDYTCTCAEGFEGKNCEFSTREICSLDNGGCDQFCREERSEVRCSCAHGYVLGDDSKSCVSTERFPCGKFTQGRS
T1 sequence (P34969 1-432): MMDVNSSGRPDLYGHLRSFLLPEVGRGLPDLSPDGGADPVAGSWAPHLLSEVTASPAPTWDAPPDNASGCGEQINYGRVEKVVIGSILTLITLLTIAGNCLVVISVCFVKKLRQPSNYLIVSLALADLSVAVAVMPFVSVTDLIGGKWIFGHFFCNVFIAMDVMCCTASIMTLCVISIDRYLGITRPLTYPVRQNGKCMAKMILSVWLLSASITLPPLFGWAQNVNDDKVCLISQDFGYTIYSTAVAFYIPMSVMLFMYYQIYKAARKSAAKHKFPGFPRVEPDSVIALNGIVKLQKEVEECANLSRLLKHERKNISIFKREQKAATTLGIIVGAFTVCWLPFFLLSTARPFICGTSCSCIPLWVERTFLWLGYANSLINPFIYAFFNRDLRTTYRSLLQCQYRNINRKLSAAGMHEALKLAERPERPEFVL

Structure (SMILES)	inhibition at 10 µM [1, 7] [%]	inhibition at 10 µM [1, 8] [%]	inhibition at 10 µM [1, 9] [%]	inhibition at 10 µM [1, 10] [%]	inhibition at 10 µM [1, 11] [%]	inhibition at 10 µM [2, 12] [%]	inhibition at 10 µM [2, 13] [%]	inhibition at 10 µM [2, 14] [%]	inhibition at 10 µM [2, 15] [%]	inhibition at 10 µM [2, 16] [%]	inhibition at 10 µM [5, 17] [%]	inhibition at 10 µM [5, 18] [%]	inhibition at 10 µM [5, 19] [%]	inhibition at 10 µM [5, 20] [%]	inhibition at 10 µM [5, 21] [%]	experimental hit status, SETD2 [6]	experimental hit status, 5-HT7 [1]	experimental hit status, 5-HT1 [2]	experimental hit status, Thrombin [3]	experimental hit status, Factor Xa [4]	also measured
CC(=O)c1sc(-c2ccc(O)cc2)nc1C [E1]	43	43	43	36	50	0	-8.44	0	1.63	-19	65	65	65	71	58						Ki [3]: 229 µM; Ki [4]: 734 µM
Cc1cc2ccccc2nc1N [SX001]	1.66	1.66	1.66	7	-3.75	0	-13	0	-0.697	-25	33	33	33	29	37	0	0	0	0	1	Ki [4]: 149 µM; experimental hit status, 5-HT6 [5]: 0
c1cnc2cccnc2c1 [SX002]	35	35	35	39	31	0	-0.719	0	-9	8	24	24	24	27	21	0	0	0	1	0	Ki [3]: 163 µM; experimental hit status, 5-HT6 [5]: 0
c1ccc2[nH]ccc2c1 [SX004]																0	0	0	0	0	inhibition at 10 µM ([1]; read-out: 5-HT7 % Inhibition by plate position): 0%; inhibition at 10 µM ([1]; read-out: %inh 5-HT7 average): -2.64%; inhibition at 10 µM ([1]; read-out: %inh 5-HT7 corrected*): 0%; inhibition at 10 µM ([1]; read-out: %inh 5-HT7 exp_1): 19%; inhibition at 10 µM ([1]; read-out: %inh 5-HT7 exp_2): -24%; inhibition at 10 µM ([2]; read-out: 5-HT1A % Inhibition by plate position): 0%; inhibition at 10 µM ([2]; read-out: %inh 5-HT1A average): -11%; inhibition at 10 µM ([2]; read-out: %inh 5-HT1A corrected*): 0%; inhibition at 10 µM ([2]; read-out: %inh 5-HT1A exp_1): -0.425%; inhibition at 10 µM ([2]; read-out: %inh 5-HT1A exp_2): -21%; experimental hit status, 5-HT6 [5]: 0; inhibition at 10 µM ([5]; read-out: 5-HT6 % Inhibition by plate position): 16%; inhibition at 10 µM ([5]; read-out: %inh 5-HT6 average): 16%; inhibition at 10 µM ([5]; read-out: %inh 5-HT6 corrected*): 16%; inhibition at 10 µM ([5]; read-out: %inh 5-HT6 exp_1): 16%; inhibition at 10 µM ([5]; read-out: %inh 5-HT6 exp_2): 16%
CS(=O)(=O)Nc1ccc(C(=O)O)cc1 [SX084]	9	9	9	5.33	13	9	9	9	9	9	38	38	38	38	38						IC50 ([6]; chemiluminescence-based enzymatic assay): 500 µM; SETD2 signal normalised to positive control and internally to compound ([6]; fragment concentration 4.7 [log): 1.05 and 0.84; SETD2 signal normalised to positive control and internally to compound ([6]; fragment concentration 5 [log): 0.76 and 0.6; SETD2 signal normalised to positive control and internally to compound ([6]; fragment concentration 5.3 [log): 0.62 and 0.74; SETD2 signal normalised to positive control and internally to compound ([6]; fragment concentration 5.6 [log): 0.8 and 0.95; SETD2 signal normalised to positive control and internally to compound ([6]; fragment concentration 5.9 [log): 0.66 and 0.73
Cn1nc(C(F)(F)F)cc1O [SX-H6]																					V0 / Vi ([3]; Thrombin primary screening, substrate 40 µM, cmpd conc 500 µM): 1.11; vinit ([3]; Thrombin primary screening, substrate 40 µM, cmpd conc 500 µM, replicate values): 29.345 and 30.109; V0 / Vi ([4]; FactorXa primary screening, substrate 100 µM, cmpd conc 200 µM): 1.13; vinit ([4]; FactorXa primary screening, substrate 100 µM, cmpd conc 200 µM, replicate values): 14.3 and 15.9
